Test results: ChEMBL document CHEMBL1158321, “In vitro anti-HIV activity of biflavonoids isolated from Rhus succedanea and Garcinia multiflora” (J Nat Prod, 1997)
pEC50, pIC50: −log10 of the molar value.

Assays:
[1] = target: Human immunodeficiency virus type 1 reverse transcriptase (Human immunodeficiency virus 1, UniProt Q72547); experiment: (§1) Inhibition of HIV1 recombinant reverse transcriptase p66/p51 expressed in Escherichia coli
[2] = target: Human immunodeficiency virus type 1 reverse transcriptase (Human immunodeficiency virus 1) (UniProt Q72547); experiment: Inhibition of HIV1 recombinant reverse transcriptase p66/p51 expressed in Escherichia coli at 200 ug/mL
[3] = test system: Human immunodeficiency virus 1; experiment: Antiviral activity against HIV1 LAV-1 in PHA-stimulated human PBMC after 6 days; assay type: functional, organism-based; conditions: Human immunodeficiency virus 1, LAV-1, 144 h
PBMC = experiment: Cytotoxicity against uninfected PHA-stimulated human PBMC assessed as thymidine incorporation after 24 hrs […]; assay type: cell-based
[4] = Selectivity index, ratio of IC50 for human PBMC to EC50 for HIV1 LAV-1
[5] = target: Human immunodeficiency virus type 1 reverse transcriptase (Human immunodeficiency virus 1) (UniProt Q72547); experiment: as §1; design: concentration or dose not given beside the values; conditions: concentration not given here

Row | SMILES | pIC50 [1] | inhibition [2] [%] | pEC50 [3] | pIC50 (PBMC) | Selectivity Index [4] | inhibition [5] [%]
1 | O=C1C[C@@H](c2ccc(O)c(O)c2)Oc2c1c(O)cc(O)c2[C@H]1C(=O)c2c(O)cc(O)cc2O[C@@H]1c1ccc(O)cc1 | 3.77 | 96 | – | – | – | –
2 | O=C1C[C@@H](c2ccc(O)cc2)Oc2c1c(O)cc(O)c2[C@H]1C(=O)c2c(O)cc(O)cc2O[C@@H]1c1ccc(O)cc1 | 3.63 | 86 | 4.42 | 4.06 | 2.3 | –
3 | COc1ccc(-c2cc(=O)c3c(OC)cc(OC)c([C@@H]4C(=O)c5c(OC)cc(OC)cc5O[C@H]4c4ccc(OC)cc4)c3o2)cc1 | – | 0 | – | – | – | < 30
4 | COc1ccc([C@@H]2CC(=O)c3c(OC)cc(OC)c([C@H]4C(=O)c5c(OC)cc(OC)cc5O[C@@H]4c4ccc(OC)cc4)c3O2)cc1 | – | 0 | – | – | – | –
5 | COc1ccc([C@@H]2Oc3cc(OC)cc(OC)c3C(=O)[C@H]2c2c(OC)cc(OC)c3c(=O)cc(-c4ccc(OC)c(OC)c4)oc23)cc1 | – | 0 | – | – | – | < 30
6 | Cc1ccc([C@@H]2CC(=O)c3c(cc(O)c(-c4c(O)cc(O)c5c4O[C@H](c4ccc(O)cc4)CC5=O)c3O)O2)cc1 | – | 14.1 | – | – | – | < 30
7 | O=C1C[C@@H](c2ccc(O)cc2)Oc2c1c(O)cc(O[C@@H]1O[C@H](CO)[C@@H](O)[C@H](O)[C@H]1O)c2[C@H]1C(=O)c2c(O)cc(O)cc2O[C@@H]1c1ccc(O)cc1 | – | 1.5 | – | – | – | –
8 | O=C1C[C@@H](c2ccc(O)cc2)Oc2cc(O)c(-c3c(O)cc4c(c3O)C(=O)C[C@@H](c3ccc(O)cc3)O4)c(O)c21 | – | 22.1 | – | – | – | < 30
9 | O=C1C[C@@H](c2ccc(O)cc2)Oc2cc(O)cc(O)c21 | – | 34.9 | – | – | – | 30
10 | O=C1c2c(O)cc(O)cc2O[C@@H](c2ccc(O)cc2)[C@@H]1c1c(O)cc(O)c2c(=O)cc(-c3ccc(O)cc3)oc12 | – | 45.3 | – | – | – | 30
11 | O=c1cc(-c2ccc(O)c(-c3c(O)cc(O)c4c(=O)cc(-c5ccc(O)cc5)oc34)c2)oc2cc(O)cc(O)c12 [AMENTOFLAVONE] | 3.92 | 97.3 | 4.03 | 4.46 | <1 | –
12 | O=c1cc(-c2ccc(O)cc2)oc2cc(O)cc(O)c12 [APIGENIN] | 3.35 | 72 | – | – | – | –
13 | O=c1cc(-c2ccc(Oc3c(O)cc4oc(-c5ccc(O)cc5)cc(=O)c4c3O)cc2)oc2cc(O)cc(O)c12 [HINOKIFLAVONE] | 4.21 | 89.9 | 5.39 | 5.05 | 2.2 | –
14 | O=C1c2c(O)cc(O)cc2O[C@H](c2ccc(O)cc2)[C@H]1c1c(O)cc(O)c2c(=O)cc(-c3ccc(O)c(O)c3)oc12 [MORELLOFLAVONE] | 3.94 | 99.2 | 5.16 | 4.09 | 12 | –
15 | O=c1cc(-c2ccc(O)c(-c3c(O)cc4oc(-c5ccc(O)cc5)cc(=O)c4c3O)c2)oc2cc(O)cc(O)c12 [ROBUSTAFLAVONE] | 4.19 | 91.4 | < 4.00 | 4.11 | <1 | –
16 | Cc1cn([C@H]2C[C@H](N=[N+]=[N-])[C@@H](CO)O2)c(=O)[nH]c1=O [ZIDOVUDINE] | – | – | – | < 4.00 | >10 | –
